# Results from patent US20080103191A1, “ENTACAPONE-DERIVATIVES” (priority 2006, published 2008).
# Where two headings read alike, the source gives them in different places.
# How the values were obtained:
# [1] = Chemical hydrolysis stability at pH 1 and pH 7.4 (HPLC); assay type: physicochemical; conditions: 37° C., over 12 h
# Method: The stability of compounds of the present invention is tested at pH 1 and at pH 7.4. The testing is carried out by the following HPLC method:
# Chemical hydrolysis rates t1/2 [h] of selected compounds of formula I are determined in 0.1 N HCl (pH 1) and PBS buffer (pH 7.4) solution. Solutions are prepared by dissolving an appropriate amount of compound in 0.1 N HCl and PBS buffer solution. Samples were withdrawn at designated time intervals and analysed for remaining prodrug by HPLC at 37° C. over 12 h.
# Reversed phase gradient HPLC method, column YMC Pro C8, 50 mm×4.0 mm, 3 μm, Eluent A: Water:trifluoroacetic acid (100:0.5 (v/v)), Eluent B: Acetonitrile:trifluoroacetic:acid (100:0.5 (v/v)). Column temperature 30° C., Flow rate 3.0 mL/min, Detection wavelength: 220 nm
# For evaluation, the peak area of the respective compound from the first injection is defined as 100% relative concentration. The peak areas of all other subsequent injections are calculated in percentage relating to this standard. (relative concentration in %). The relative concentrations are plotted in a logarithmic scale (ln) against the injection times. Based on the assumption of a first order kinetic, the rate constant and half life times (t1/2 [h]) can be calculated.
# Plasma stability ex vivo = assay type: in vitro ADME; conditions: human plasma, 37° C., read-out: t1/2 plasma
# Method: Plasma stability is determined in human and rat plasma ex vivo. For the determination of the plasma stability of the compounds of formula I, the test compounds were incubated with human plasma (c=5 μg/mL) at 37° C. for certain time intervals up to 60, resp. 120 min (depending on the compound). Afterwards the incubations were stopped by equivalent addition of acetonitrile for protein precipitation, and the samples were mixed and centrifuged. The supernatants were adequately diluted and analyzed by HPLC with UV detection at 305 nm.
# The degradation of the compounds of formula I as well as the formation of the active drug entacapone were monitored, and the half-life times of the compounds of formula I were calculated from the obtained peak areas.
# [2] = Permeability in Caco-2 cells, apical to basolateral; assay type: in vitro ADME; parameters: dose or concentration left out as unconfirmed; conditions: human; 21d Caco-2 monolayer, apical pH 6.5 to basolateral pH 7.4, 60 minutes
# From the text: The human adenocarcinoma cell line Caco-2 is used as an in vitro system to predict oral absorption. These cells serve as a model of small bowel tissue and permeation through these cells is a predictor for gastro-intestinal absorption. Further to being a model for oral absorption, permeability in Caco-2 cells may be predictive for the blood brain barrier permeability (P. Garberg et al.; Toxicology in vitro 19 (2005); 299-334). […] The permeability in Caco-2 cells has been tested by the following method:
# The permeability of selected compounds of formula I across Caco-2 (21d Caco-2-culture) monolayer in the apical to basolateral direction is investigated. Control substances were ^3H-propranolol and ^3H-mannitol.
# The nominal concentration of the test items is […]. The pH value is set to 6.5 for the apical transport medium and to 7.4 for the basolateral medium. Samples are obtained following 60 minutes (120 minutes for control samples) incubation from the basolateral receiver chamber. At sampling time approximately 600 μL of each well are transferred into an eppendorf vial and stored between −12° and −30° C. until HPLC or LC-MS/MS analysis. The control substances are quantified by liquid scintillation.
# [3] = Solubility in 0.1 N HCl, PBS buffer, FaSSIF and FeSSIF; assay type: physicochemical; conditions: thermodynamic from solid, ambient temperature
# Method: For testing solubility, saturated solutions of selected compounds of formula I are prepared in four different systems and compared to the solubility of entacapone. The solubility is tested in 0.1 N HCl (pH 1), PBS buffer (pH 7.4) and in two simulated gastric fluids, FaSSIF at pH 6.5 (for fasting state) and FeSSIF at pH 5.0 (for fed state) at ambient temperature. The content of the FaSSIF simulated gastric fluid is as follows:
# The solubility testing is carried out by the following method: An excess amount of each compound is added to a 0.1 N HCl, PBS buffer, FeSSIF and FaSSIF. The suspensions are shaken for 10 min. After centrifugation the concentration is determined by HPLC. Reversed phase gradient HPLC method, column YMC Pro C8, 50 mm×4.0 mm, 3 μm, Eluent A: Water:trifluoroacetic acid (100:0.5 (v/v)), Eluent B: Acetonitrile:trifluoroacetic:acid (100:0.5 (v/v)). Column temperature 30° C., Flow rate 3.0 mL/min, Detection wavelength: 220 nm
# [4] = Log D (pH 7.4) by isocratic HPLC; assay type: physicochemical; conditions: YMC Pro C18 column, phosphate buffer pH 7.4/acetonitrile 45/55
# Method: LogD is an indicator for absorption and lipophilicity for ionized compounds under defined pH conditions and is measured by applying an isocratic HPLC Method at pH 7.4.
# The log D has been tested at pH 7.4. The testing has been carried out by the following method: Isocratic HPLC method: Column YMC Pro C18, 150 mm×4.0 mm, 3 μm, Eluent Phosphate buffer pH 7.4/acetonitrile (45/55, (v/v)), Runtime 15-60 min, Flow rate 1.2 ml/min, Detection wavelength: 220 nm
# [5] = pH 1, 0.1 N HCl, read-out: t1/2 at pH 1 (converted)
# [6] = pH 7.4, PBS buffer, read-out: t1/2 at pH 7.4 (converted)
# [7] = 0.1 N HCl, pH 1, simulated gastric fluid, shaken 10 min, read-out: Solubility 0.1N HCl Ph 1.0
# [8] = FaSSIF, pH 6.5, fassif, fasting state fluid, read-out: Solubility FaSSIF Ph 6.5
# [9] = FeSSIF, pH 5, fessif, fed state fluid, read-out: Solubility FeSSIF Ph 5.0
# [10] = PBS buffer, pH 7.4, aqueous buffer, read-out: Solubility PBS Ph 7.4
Compound,"half-life [1, 5] [h]","half-life [1, 6] [h]",half-life at 5 μg/mL (Plasma stability ex vivo) [h],Papp A→B at 60 min [2] [×10⁻⁶ cm/s],"solubility at 10 min [3, 7] [µg/mL]","solubility at 10 min [3, 8] [µg/mL]","solubility at 10 min [3, 9] [µg/mL]","solubility at 10 min [3, 10] [µg/mL]",chromatographic logD [4]
"CCN(CC)C(=O)/C(C#N)=C/c1cc(OC(=O)OC2CCCCC2)c(O)c([N+](=O)[O-])c1 [Compound 51, Carbonic acid 5-((E)-2-cyano-2-diethylcarbamoyl-vinyl)-2-hydroxy-3-nitro-phenyl ester cyclohexyl ester]",< 1,19.3,0.64,45,< 10,1200,140,810,1.8
"CCOC(=O)Oc1cc(/C=C(\C#N)C(=O)N(CC)CC)cc([N+](=O)[O-])c1O [Compound 71, Carbonic acid 5-((E)-2-cyano-2-diethylcarbamoyl-vinyl)-2-hydroxy-3-nitro-phenyl ester ethyl ester]",28.9,8.3,0.0133,7.7,70,570,1100,800,0.8
"CCCOC(=O)Oc1cc(/C=C(\C#N)C(=O)N(CC)CC)cc([N+](=O)[O-])c1O [Compound 41, Carbonic acid 5-((E)-2-cyano-2-diethylcarbamoyl-vinyl)-2-hydroxy-3-nitro-phenyl ester propyl ester]",23.1,7.2,0.112,18,10,290,200,470,1.2
"CCN(CC)C(=O)/C(C#N)=C/c1cc(OC(=O)OCC(C)C)c(O)c([N+](=O)[O-])c1 [Compound 1, Carbonic acid 5-((E)-2-cyano-2-diethylcarbamoyl-vinyl)-2-hydroxy-3-nitro-phenyl ester isobutyl ester]",6.8,11.6,0.128,24,20,530,200,530,1.4
"CCN(CC)C(=O)/C(C#N)=C/c1cc(OC(=O)OCCc2cccs2)c(O)c([N+](=O)[O-])c1 [Compound 61, Carbonic acid 5-((E)-2-cyano-2-diethylcarbamoyl-vinyl)-2-hydroxy-3-nitro-phenyl ester 2-thiophen-2-yl-ethyl ester]",12.8,4,0.47,36,,240,40,490,1.7
"CCN(CC)C(=O)/C(C#N)=C/c1cc(OC(=O)OC(C)C)c(O)c([N+](=O)[O-])c1 [Compound 7, Carbonic acid 5-((E)-2-cyano-2-diethylcarbamoyl-vinyl)-2-hydroxy-3-nitro-phenyl ester isopropyl ester]",2.7,23.1,0.223,31,3,750,90,950,1
